Results as given in patent US10759683B2, “Methods for removing mercury contaminant from aqueous solutions, and bioreactors therefor” (priority 2018, dated 2020).
“And” between values parts separate entries of the source, which are not always exact repeats. Equal values may be shown once. Read-outs that look alike come from different tables or passages of the source.

Assays:
[1] = test system: Geobacter sulfurreducens PCA; assay: Bioreactor Hg^0 production and growth of Geobacter sulfurreducens PCA supplied with Hg^II; assay type: cell-based; conditions: for Cumulative Hg(0) production / Final O.D. 600 nm: live cells, 28 C, Hg 250 pM
From the text: Geobacter sulfurreducens PCA cells were revived from cryostock and grown in defined medium (herein referred to as GSMM) according to previous work (Schaefer, J. K.; Morel, F. M. M., High methylation rates of mercury bound to cysteine by Geobacter sulfurreducens. Nature Geoscience 2009, 2, (2), 123-126) with the following modification: resazurin, the color indicator used to monitor anoxia, was removed to avoid issues with abiotic Hg reduction given that resazurin is a reducing agent. Cells were grown chemotrophically in the dark at 28° C. Cells took between 10 to 12 days to re-initiate growth, as such, cultures were maintained by re-inoculating fresh GSMM every 4 days with a 10% inoculum in a final volume of 10 mL. Upon reaching late exponential phase, a 10% inoculum was used to start cultures in GSMM with a final volume of 75 mL destined for the bioreactor. Upon reaching late exponential phase a 10% inoculum was used to inoculate the bioreactor where cells were supplied with Hg^II in 560 mL of PYEΔSO4^2− or GSMM medium (see Table 1).

[2] = test system: Heliobacterium modesticaldum Ice1; assay: microbe, parasite or virus in culture
Protocol: The following strains were used in these studies: Heliobacterium modesticaldum Ice1, Clostridium acetobutylicum ATCC 824, Geobacter sulfurreducens PCA and Escherichia coli K-12. For phototrophic growth of H. modesticaldum, cells were supplied with constant illumination at 80 μmolphoton·m^−2·s^−1 at 50° C. whereas chemotrophic cells were grown at the same temperature in the dark in line with previous work.^32 C. acetobutylicum and E. coli were grown at 37° C. whereas G. sulfurreducens was grown at 28° C., all chemotrophically in the dark.
[…] Hg growth assays were carried out under the same phototrophic and chemotrophic conditions mentioned above.
Stock solutions used in cell cultures were all prepared following anaerobic techniques. […] For DMSO controls, the DMSO solution was bubbled with N2 prior to being added to the bioreactor; final concentration of DMSO in the reactor was 2.8 mM. Sodium nitrite stocks were prepared to a final concentration of 10 mM in ultra pure miliQ, filter-sterilized, sparged with N2 and stored at 4° C. in the dark; final concentration of NO2^− in the reactor was 10 μM. For experiments where HCO3^− was supplied, a stock solution of 1 M was prepared by dissolving NaHCO3 in ultra pure MiliQ and autoclaving for 30 minutes at 121° C. under 80% N2/20% CO2 atmosphere prior to use. Fumarate stock solutions were prepared at a final concentration of 40 mM in ultra pure miliQ, filter sterilized (0.2 μm pore size), bubbled with N2, sealed and crimped shut in sterile serum bottles prior to use. All equipment used in the anaerobic glove box was conditioned for at least 48 hours prior to use.
For Heliobacterium modesticaldum Ice1, new cultures were started from a cryostock for every bioreactor experiment. Cells were revived in DSMZ medium 655 (herein referred to as PYE) previously used to isolate H. modesticaldum (Kimble, L. K.; Mandelco, L.; Woese, C. R.; Madigan, M. T., Heliobacterium modesticaldum, sp. nov., a thermophilic heliobacterium of hot springs and volcanic soils. Archives of Microbiology 1995, 163, (4), 259-267). Cultures started from cryostock were grown phototrophically in PYE with an incandescent light source and constant illumination of 80 μmol photon m^−2s^−1 at 50° C. in line with previous work (Kimble, above) until reaching early stationary phase. Afterwards, a 10% inoculum was used to re-inoculate 10 mL of fresh PYE and cells were grown phototrophically (with the same light intensity) or chemotrophically (in the dark) at 50° C. These cultures were used to establish finely resolved growth curves and Hg growth assays (see FIGS. 1 and 2).
For experiments testing the effect of carbon source on Hg^0 production some modifications to the initial PYE medium growth protocol were made. Phototrophic H. modesticaldum cells were grown with pyruvate, acetate, acetate+HCO3^− and/or yeast extract alone as a carbon source. Cells were grown until late exponential phase before being subsampled to supply a 10% inoculum for cultures with a final volume 75 mL destined for the bioreactor and grown under the same conditions (see Table 1). […] Upon reaching late exponential phase, cells were inoculated into the bioreactor as a 10% inoculum in a final volume of 560 mL of media with the desired carbon source treatment.
Please refer to the methods section of Gregoire and Poulain (2016)^21 (which is herein incorporated by reference in its entirety) for a schematic of the bioreactor setup employed and the Hg^0 sampling methodology. Note that phototrophic bioreactor experiments were carried out using a 200 W incandescent clear light bulb at a constant illumination at 20 μmolphoton·m^−2·s^−1.

[3] = test system: Heliobacterium modesticaldum Ice1; assay: Hg growth assays with Heliobacterium modesticaldum Ice1; assay type: cell-based; conditions: 500 nM HgCl2 supplied as two doses of 250 nM 24 hours apart, phototrophic and chemotrophic cells in PYE
Protocol: One-way ANOVAs were performed for phototrophic and chemotrophic Hg exposure assays using R statistical software (R Core Team R: A Language and Environment for Statistical Computing, R Foundation for Statistical Computing: 2014). In the event of detecting a significant difference, assumptions of constant variance and normality were verified with the Brusch-Pagan test and the Shapiro-Wilks test, respectively, with the significance thresholds set to p=0.05 for each test. Significant differences were then identified using the Tukey HSD test. The sample size employed for growth assays was n=3 per treatment. All assumptions were passed for significant differences and these values are reported in the Brief Description of the Drawings (see FIG. 4). A non-linear regression model was fit to the cumulative Hg^0 production data as a function of pyruvate concentration using Sigmaplot software. In this instance, a natural logarithmic function was fit to a data set of n=8. Given the significant fit, assumptions of constant variance and normality were verified with the Sigmaplot software with the significant threshold set to p=0.05 for each test.

[4] = test system: Clostridium acetobutylicum ATCC 824; assay: Bioreactor Hg^0 production and growth of Clostridium acetobutylicum ATCC 824 supplied with Hg^II; assay type: cell-based; conditions: chemotrophy
Protocol: For Clostridium acetobutylicum ATCC 824, new cultures were started for every bioreactor experiment. Cells were revived in DSMZ medium 104b (herein referred to as PYX). Cells were grown in the dark at 37° C. until reaching early stationary phase after which point they were rotated as a 1% inoculum in a final volume of 10 mL into fresh PYX. Cells were grown to late exponential phase, and re-inoculated as a 1% inoculum in a final volume of 75 mL of PYX in cultures destined for the bioreactor. Experiments were performed in PYE where all SO4^2− salts were substituted with chloride salts (PYEΔSO4^2−) to avoid competition between Hg^II reduction and SO4^2− reduction. Cells were also supplied with Hg^II in DSMZ medium 104b to account for the effect of suboptimal growth medium (see Table 1 and Table 3). […] The initial volume of medium in the bioreactor was corrected to ensure that identical volumes were maintained throughout all experiments.

[5] = chemotrophy, pyruvate 20 mM + YE 4 g L-1, fumarate 40 mM
[6] = live cells, phototrophy, 50 C, acetate 30 mM + YE 4 g L-1, HCO3- 10 mM, Hg 250 pM
[7] = chemotrophy, pyruvate 20 mM + YE 4 g L-1 (PYEΔSO4^2-), NTZ 10 μM + DMSO 2.8 mM
[8] = live cells, 37 C, pyruvate 20 mM + YE 4 g L-1 (PYEΔSO4^2-), NTZ 10 μM + DMSO 2.8 mM, Hg 250 pM

SMILES: O=C(O)/C=C/C(=O)O [Fumarate]
- Cell growth ([1]; in the presence of fumarate): able to grow
- Cumulative Hg(0) production ([1]; chemotrophy, acetate 10 mM (optimal growth medium), fumarate 40 mM): 19.81 pmol and 21.48 pmol
- Cumulative Hg(0) production [1, 5]: 6.65 pmol
- Final O.D. 600 nm [1, 5]: 0.185
- Decrease of Hg^0 production in the presence of fumarate ([1]; with vs without fumarate as terminal electron acceptor, pyruvate + YE): 50%

SMILES: O=C([O-])O.[Na+] [HCO3—, NaHCO3]
- Cumulative Hg(0) production [2, 6]: 43.31 pmol and 42.50 pmol
- Final O.D. 600 nm [2, 6]: 0.02 and 0.039

SMILES: [Cl][Hg][Cl] [Hg^II, HgCl2]
- Physiological advantage / growth (rate, yield) with sublethal Hg [3]: No physiological advantage was observed except for a small increase in the yield of phototrophically grown cells
- Cell health at increased mercury concentration ([2]; 2 nM Hg, phototrophically grown cells, 48 hours): unaffected

SMILES: O=N[O-].[Na+] [NO2, Sodium nitrite]
- Cumulative Hg(0) production [2]: 53.36 ± 0.13 pmol and 53.47 pmol and 53.66 pmol
- Final O.D. 600 nm [2]: 0.034 and 0.023
- Increase in the amount of Hg^0 produced [2]: 30%

SMILES: CC(=O)Oc1ccccc1C(=O)Nc1ncc([N+](=O)[O-])s1 [NTZ, nitazoxanide]
- Decrease of Hg^0 production in the presence of NTZ ([1]; chemotrophy, NTZ 10 μM vs DMSO control): 62%
- Cumulative Hg(0) production [1, 7]: 3.19 pmol
- Final O.D. 600 nm [1, 7]: 0.041
- Decrease of Hg^0 production in the presence of NTZ ([4]; NTZ 10 μM vs DMSO control): 98%
- Cumulative Hg(0) production [4, 8]: 1.20 pmol
- Final O.D. 600 nm [4, 8]: 0.146
- inhibition at 10 µM ([2]; Heliomicrobium modesticaldum, ICE1, read-out: Inhibition (decrease) of chemotrophic Hg^0 production compared to controls): 88%
- Final O.D. 600 nm ([2]; live cells, chemotrophy (dark), 50 C, pyruvate 20 mM + YE 4 g L-1, NTZ 10 μM + DMSO 2.8 mM, Hg 250 pM): 0.065 and 0.057
- Cell growth ([2]; phototrophic cells, NTZ 10 μM): did not grow
- Lag: peak of Hg^0 production occurring later than previously observed ([2]; phototrophic cells, NTZ 10 μM): 11 h
